The text below walks through data of US20050282208A1, “Cellular phenotype” (Cytokinetics, Inc., priority 2004, published 2005).

The subject of test [1] is SKOV3 cells. As to the kind of experiment: Mitotic spindle length in tubulin marker images of SKOV3 cells. It counts as cell-based. From the text: In accordance with this invention, the length of a bipolar mitotic spindle may be measured as the separation distance between the spindle poles. To make such measurement, mitotic spindles are observed by a suitable technique such as one that employs a marker for a specific component of the spindle. For example, the technique may involve treating cells with a marker for tubulin and then imaging them under conditions that illuminate such marker. This facilitates automated identification of the mitotic spindle and measurement of its length using image analysis algorithms. […]
The data in this table was obtained for SKOV3 cells (ovarian cancer cell line) treated with DMSO (control) and a compound that produces the rice phenotype. […] In the table, “n” is the number of cells that were analyzed to generate a mean length in micrometers as indicated and associated standard deviation. Spindle lengths were measured manually in this example.
Manual measurements were taken from one image each of DMSO, rice compound 4-(3-Bromo-4-hydroxy-5-methoxy-phenyl)-6-methyl-2-oxo-1,2,3,4-tetrahydro-pyrimidine-5-carboxylic acid 1,2,2-trimethyl-propyl ester at 40 uM, and a mitotic kinesin inhibitor at 40 uM using MetaMorph Imaging Software. Lines were drawn between what was manually determined to be the ends of the mitotic spindle. […]

For test [2], the system named is SKOV3 cells. Kind of test: Image analysis of treated SKOV3 cells: mitotic index and interphase phenotype distance from control. The following applies: for Impact on mitotic index / Impact on interphase features (combined distance from normal interphase phenotype): FIG. 5A, multiple concentrations; for Impact on mitotic index: 40 uM maximum; for Impact on interphase features (combined distance from normal interphase phenotype): 40 uM maximum (Taxol 0.8 uM maximum). It is filed as cell-based. An excerpt: In one specific example, a particular group of cellular features for characterizing the interphase phenotype of a cell could include, for all cells that are not mitotic: • the average size of cell nuclei; • the average elliptical axis ratio for nuclei; • the average kurtosis intensity of cells; • the average pixel intensity for Golgi apparatus in cells; • the average cell area; • the elliptical axis ratio for cells; • the form factor (area divided by perimeter) for cells; • the kurtosis of the intensity of tubulin; • the second moment of a cell; • the average total intensity of tubulin for each cell; • the proportion of branched (i.e. having projections) cells.
In one embodiment, after each cellular feature has been characterized, and similarly for the control group cellular features, a distance in multivariate space may be calculated. This can be the distance from a normal interphase phenotype as presented in the horizontal axis of FIG. 5A (described below). For the purposes of simplicity of discussion, if it is assumed that there are only three cellular features (a, b, c) comprising the interphase phenotype signature, and where the subscript ‘t’ refers to a feature of a treated cell and the subscript ‘c’ refers to a feature of a control cell, then the distance (L1) in multivariate space between the interphase signature of the treated cells and interphase signature of the control cells can be calculated as L1=|at−ac|+|bt−bc|+|ct−cc|, which provides the interphase metric.
FIG. 5A presents data showing that certain compounds producing the rice phenotype have very little effect on phenotypic features of interphase cells. In FIG. 5A, the vertical axis presents mitotic index, which is a measure of a compound's ability to cause mitotic arrest (thereby its ability to have a profound effect on the phenotype of mitotic cells), and the horizontal axis presents a “combined distance” from a normal interphase phenotype. The combined distance takes into account various features that characterize interphase phenotype, including those described above (i.e., the average size of cell nuclei, the average elliptical axis ratio for nuclei, the average kurtosis intensity of cells, etc.) Greater values on the horizontal axis indicate greater deviations from a control phenotype for interphase cells.
FIG. 5B is a profile graph showing that the interphase cells treated with rice compounds track interphase control cells for various interphase phenotypic features. These features include, as shown on the horizontal axis, the relative number of objects (putative cells), the average area occupied by DNA in the objects (presumably nuclei), the average axes ratio of the DNA regions in the objects, the average kurtosis of the Golgi regions, the mean intensity of the Golgi regions, average area encompassed by tubulin in the objects, the average axes ratio of tubulin in the objects, the average kurtosis of the tubulin regions, the average form factor of the tubulin regions, the average moment of the tubulin regions, the average total intensity of tubulin in each object, and the branching properties of the tubulin in the objects. Note that the cells used to generate this graph were treated with markers for Golgi (LC for labeled LC Lectin), DNA (HO for Hoechst stain), and tubulin (DM for labeled DM1-α). As shown, the rice features closely track those of the DMSO treated cells and diverge strongly from the interphase cells of Taxol treated cells.
The data of FIG. 5B were obtained by treating SKOV3 cells with many different compounds and then capturing the interphase characteristics shown in the horizontal axis using image analysis techniques. The concentration of each compound was chosen by determining what concentration of a compound produced a mitotic index between 14 and 17% after cells were treated at multiple concentrations and then imaged to capture Golgi, tubulin, and DNA data for the interphase features shown in FIG. 5B. […]

Test [3] relates to SKOV3 cells. The description is as above. It counts as cell-based.
For another test, the system named is A549 cells. As to the kind of experiment: Cell line specificity: mitotic index, number of objects and rice phenotype in A549 cells. It counts as cell-based, human. The following applies: wide range of concentrations, FIG. 7A. An excerpt: (§1) But it is apparently immune to all anti-mitotic agents.
(§2) As shown, the discrepancy exists over a wide range of concentrations. The two effects depicted in FIG. 7A are number of objects (a measure of the compound's cell killing strength) and mitotic index (fraction of the cells in a population that are in the mitotic phase).

A further test deals with DU145 cells. Kind of test: Cell line specificity: mitotic index, number of objects and rice phenotype in DU145 cells. It is filed as cell-based. The protocol: as §1, §2
FIG. 7B compares phenotypes of DU145 cells that were treated with 4-(3-Bromo-4-hydroxy-5-methoxy-phenyl)-6-methyl-2-oxo-1,2,3,4-tetrahydro-pyrimidine-5-carboxylic acid 1,2,2-trimethyl-propyl ester (top panel) to phenotypes of DU145 cells that were treated with a different compound (bottom panel). […] Note that the other compound produces a phenotype bearing some resemblance to the rice phenotype in SKOV3 cells. Specifically, it produces mitotic spindles that are somewhat elongated. […] This was not observed with the other compound.

The next test concerns 60 cell lines. The following applies: NCI panel data; cited from earlier work.
Setting [4] is: wide range of concentrations, FIG. 7A.
Where [5] appears, read: SK0V3 cell line, wide range of concentrations, FIG. 7A.

`COc1cc(C2NC(=O)N(C)C(C)=C2C(=O)OC2CCCC2)cc(Br)c1O` (centres unmarked) [4-(3-Bromo-4-hydroxy-5-methoxy-phenyl)-1,6-dimethyl-2-oxo-1,2,3,4-tetrahydro-pyrimidine-5-carboxylic acid cyclopentyl ester]: in the test on SKOV3 cells [1] (40 uM for 24 hours, control 0.4% DMSO, FIG. 2A), the “Mitotic spindle length compared to control cells” value was “significantly longer than spindles in normal cells”. In the test on SKOV3 cells [2], the “Impact on mitotic index” value is “significant impact on mitotic index” and the “Impact on interphase features (combined distance from normal interphase phenotype)” value (“Impact on interphase features” for short) was “minimal impact on interphase features”. Moreover, in the test with SKOV3 cells [3] (40 uM for 24 hours, GFP-Histone, FIG. 6A), the “Organization of nuclear DNA in interphase cells compared to control” value is “similarly organized in rice interphase cells as it is in normal interphase cells”.

For `COc1cc(C2NC(=O)NC(C)=C2C(=O)OC(C)C(C)(C)C)cc(Br)c1O` (centres unmarked) [4-(3-Bromo-4-hydroxy-5-methoxy-phenyl)-6-methyl-2-oxo-1,2,3,4-tetrahydro-pyrimidine-5-carboxylic acid 1,2,2-trimethyl-propyl ester], the “Impact on mitotic index” value with SKOV3 cells [2] is on record as “significant impact on mitotic index”. In addition, the “Impact on interphase features” value with SKOV3 cells [2] is “minimal impact on interphase features”. In addition, the “Effect on cell number (number of objects)” value is listed as “limited effect” in the test with A549 cells, “significant affects” in the test with DU145 cells (setting [4]) and “significant affects” in the test with SKOV3 cells [3] (setting [5]). For the same molecule, the “Effect on mitotic index” value is listed as “limited effect” with A549 cells, “significant affects” with DU145 cells (setting [4]) and “significant affects” in the test with SKOV3 cells [3] (setting [5]). For the same molecule, the “Induction of the rice phenotype” value in the test on DU145 cells (tubulin staining, FIG. 7B) is on record as “produces a rice phenotype”; in the test with SKOV3 cells [3] (SKOV3 cells), “clearly manifest”.

In the case of `CC(=O)O[C@H]1C(=O)[C@@]2(C)[C@H]([C@H](OC(=O)c3ccccc3)[C@]3(O)C[C@H](OC(=O)[C@H](O)[C@@H](NC(=O)c4ccccc4)c4ccccc4)C(C)=C1C3(C)C)[C@]1(OC(C)=O)CO[C@@H]1C[C@@H]2O` [Taxol, reference compound], in the test on 60 cell lines, the “Potency differences between cell types” value was “over 3 orders of magnitude”. For the same molecule, the “Production of elongated metaphase spindles” value with SKOV3 cells [1] is listed as “do not produce elongated metaphase spindles”. The “Impact on interphase features” value with SKOV3 cells [2] was “widely separated from the control interphase phenotype”. In addition, the “Interphase phenotypic features profile compared to control” value in the test on SKOV3 cells [2] (FIG. 5B, SKOV3 cells, concentrations inducing approximately 15% mitotic arrest) is recorded as “vary to a greater degree”. In addition, in the test on A549 cells, the “Effect on cell number (number of objects)” value is given as “robust response” and the “Effect on mitotic index” value is recorded as “robust response”.
